Test results as given in patent US20240059695A1, “SUBSTITUTED IMIDAZO[1,5-b]PYRIDAZINE COMPOUNDS AS KINASE INHIBITORS AND USE THEREOF” (IMPACT THERAPEUTICS (SHANGHAI), INC, priority 2020, published 2024).

Legend:
ATR/ATRIP enzyme = biological target: T1, ATR/ATRIP enzyme (Homo sapiens, UniProt Q13535); assay: ATR enzyme activity experiment (HTRF); type: biochemical; settings: p53 substrate, 30 min room temperature, read-out: IC50 (nM), inhibitory effect on ATR kinase activity
T1 construct: purchased Eurofins 14-953
Procedure: The mixture was centrifuged at 1000 rpm for 1 minute, and reacted at room temperature protected from light for 30 minutes. Then 5 μL of EDTA stop solution (250 mM) was added to stop the reaction.

[1] = tested on: human colon cancer LoVo cell; assay: MTT proliferation assay, LoVo; type: cell-based; settings: Homo sapiens, LoVo, 96 h, MTT, 4 days; read-out: IC50 (nM), proliferation of LoVo cell
Procedure: (§1) The cells were seeded into 96-well cell culture plate with a density of 2000/4000 cells per well and incubated overnight in a 5% CO2 incubator at 37° C. […] 5 μL diluent of each concentration was added to 120 μL of medium (25 times diluted) and mixed by shaking. The overnight cell plates were taken and the culture medium was removed, 195 μL of fresh medium was added to each well, and 5 μL of diluted medium containing the corresponding concentration of the test compound was added respectively (the final concentration of DMSO is 1%), and the culture plate was then placed in a 5% CO2 incubator at 37° C. for 4 days. After removing the original solution, 100 SEL of fresh serum-free DMEM medium containing MTT (0.5 mg/mL) was added to each well, the culture was continued. […] Cell viability (%)=(ODcompound−ODbackground)/ODDMSO−ODbackground)×100. GraphPad Prism 6.0 was used to analyze the data. The inhibitory activity of compounds on cell proliferation was plotted based on cell viability and the logarithm of compound concentration. The IC5.0 value was fitted by a sigmoidal dose response curve equation Y=100/(1+10^(LogC-LogIC50)), wherein C was the concentration of compound.

[2] = Pharmacokinetics following single oral administration to mice; type: in vivo; settings: mouse, CD-1 (ICR) mice, gavage 10 mg/kg, 0.5% methylcellulose/water suspension, plasma
Procedure: The compound of the present invention was formulated into a 0.5% methylcellulose/water uniform suspension, and was administered to CD-1 (ICR) mice by gavage at 10 mg/kg. Plasma samples were collected at 8 time points of 0.250, 0.500, 1.00, 2.00, 4.00, 6.00, 8.00 and 24.0 hours post-dose. Concentrations of the compound were determined by LC-MS/MS method.

[3] = tested on: human lung cancer NCI-H460 cell; assay: MTT proliferation assay, NCI-H460; type: cell-based; settings: NCI-H460, 96 h, MTT, 4 days, read-out: IC50 (nM), proliferation of NCI-H460 cell
Procedure: The cells were digested by trypsinase and centrifuged at 800 rpm for 5 minutes, the supernatant was discarded, and the residual was resuspended with fresh medium […]) and counted.
as §1, with “μL” for “SEL”, “(%)=(ODcompound−ODbackground)/(ODDMSO−ODbackground)×100.” for “(%)=(ODcompound−ODbackground)/ODDMSO−ODbackground)×100.”, “IC50” for “IC5.0”, “[…],” for “Y=100/(1+10^(LogC-LogIC50)),”

T1 sequence (Q13535 whole entry): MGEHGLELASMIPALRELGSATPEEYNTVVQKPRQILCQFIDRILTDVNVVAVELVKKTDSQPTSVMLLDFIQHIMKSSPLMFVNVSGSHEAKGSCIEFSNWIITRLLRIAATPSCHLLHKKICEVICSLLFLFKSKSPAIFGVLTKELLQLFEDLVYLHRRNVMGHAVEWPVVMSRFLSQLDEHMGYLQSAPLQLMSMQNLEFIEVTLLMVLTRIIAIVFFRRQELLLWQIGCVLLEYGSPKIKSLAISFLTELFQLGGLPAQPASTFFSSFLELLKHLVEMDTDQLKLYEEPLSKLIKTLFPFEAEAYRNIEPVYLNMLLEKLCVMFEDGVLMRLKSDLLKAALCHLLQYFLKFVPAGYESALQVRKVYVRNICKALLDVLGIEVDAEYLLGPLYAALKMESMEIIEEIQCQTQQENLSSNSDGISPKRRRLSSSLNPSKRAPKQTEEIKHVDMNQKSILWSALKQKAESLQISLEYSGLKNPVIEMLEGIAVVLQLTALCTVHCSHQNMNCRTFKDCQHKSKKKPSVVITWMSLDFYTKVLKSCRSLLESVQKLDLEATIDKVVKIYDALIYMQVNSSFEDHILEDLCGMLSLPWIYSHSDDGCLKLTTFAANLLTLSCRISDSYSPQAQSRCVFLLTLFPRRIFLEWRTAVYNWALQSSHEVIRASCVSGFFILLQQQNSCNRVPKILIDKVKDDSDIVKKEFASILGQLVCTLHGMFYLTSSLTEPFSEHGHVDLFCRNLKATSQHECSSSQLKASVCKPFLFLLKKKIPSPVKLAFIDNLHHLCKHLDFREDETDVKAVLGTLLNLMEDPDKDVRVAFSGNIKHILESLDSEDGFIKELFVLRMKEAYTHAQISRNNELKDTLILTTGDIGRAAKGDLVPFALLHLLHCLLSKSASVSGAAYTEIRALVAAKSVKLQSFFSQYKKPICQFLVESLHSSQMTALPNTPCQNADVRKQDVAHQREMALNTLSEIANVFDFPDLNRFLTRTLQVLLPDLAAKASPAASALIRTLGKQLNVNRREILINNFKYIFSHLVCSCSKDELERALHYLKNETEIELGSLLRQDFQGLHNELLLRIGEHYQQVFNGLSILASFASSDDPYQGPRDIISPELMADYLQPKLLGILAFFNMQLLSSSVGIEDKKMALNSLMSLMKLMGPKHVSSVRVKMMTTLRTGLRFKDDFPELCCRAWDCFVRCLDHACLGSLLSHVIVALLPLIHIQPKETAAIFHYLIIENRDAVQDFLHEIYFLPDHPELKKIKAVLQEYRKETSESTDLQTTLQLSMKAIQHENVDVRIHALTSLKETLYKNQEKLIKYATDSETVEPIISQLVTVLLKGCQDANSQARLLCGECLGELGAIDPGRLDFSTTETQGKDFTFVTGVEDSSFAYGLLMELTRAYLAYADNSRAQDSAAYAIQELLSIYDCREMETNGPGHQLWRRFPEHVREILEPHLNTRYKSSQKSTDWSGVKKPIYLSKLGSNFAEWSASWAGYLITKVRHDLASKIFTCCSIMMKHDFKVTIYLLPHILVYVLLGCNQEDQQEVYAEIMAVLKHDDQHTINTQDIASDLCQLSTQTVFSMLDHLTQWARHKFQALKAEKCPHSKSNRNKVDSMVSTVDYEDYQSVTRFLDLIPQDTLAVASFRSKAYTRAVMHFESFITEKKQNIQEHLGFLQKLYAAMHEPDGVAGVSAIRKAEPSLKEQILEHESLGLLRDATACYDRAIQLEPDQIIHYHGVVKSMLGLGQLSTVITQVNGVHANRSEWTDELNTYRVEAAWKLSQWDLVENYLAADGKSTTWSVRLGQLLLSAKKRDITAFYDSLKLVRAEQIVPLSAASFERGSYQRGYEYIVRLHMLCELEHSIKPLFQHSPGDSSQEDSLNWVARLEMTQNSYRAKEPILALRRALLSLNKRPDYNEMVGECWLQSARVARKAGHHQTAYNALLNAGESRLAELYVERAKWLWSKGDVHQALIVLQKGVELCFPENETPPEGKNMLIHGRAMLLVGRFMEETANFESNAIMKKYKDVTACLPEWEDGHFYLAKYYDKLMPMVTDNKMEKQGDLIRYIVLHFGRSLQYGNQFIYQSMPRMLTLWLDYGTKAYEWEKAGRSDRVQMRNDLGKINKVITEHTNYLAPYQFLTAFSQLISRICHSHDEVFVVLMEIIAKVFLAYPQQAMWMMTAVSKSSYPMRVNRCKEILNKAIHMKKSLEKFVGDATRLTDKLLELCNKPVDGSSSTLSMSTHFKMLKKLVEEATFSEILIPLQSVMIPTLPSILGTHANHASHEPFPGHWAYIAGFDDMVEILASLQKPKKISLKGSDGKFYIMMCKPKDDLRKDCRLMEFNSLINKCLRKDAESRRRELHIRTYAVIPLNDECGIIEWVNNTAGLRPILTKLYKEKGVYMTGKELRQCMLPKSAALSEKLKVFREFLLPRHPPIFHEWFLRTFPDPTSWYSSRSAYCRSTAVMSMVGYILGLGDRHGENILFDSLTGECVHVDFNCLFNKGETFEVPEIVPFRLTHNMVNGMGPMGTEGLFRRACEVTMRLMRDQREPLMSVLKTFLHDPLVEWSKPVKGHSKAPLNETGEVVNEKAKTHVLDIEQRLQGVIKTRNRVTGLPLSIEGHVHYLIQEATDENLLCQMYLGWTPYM
T1 sequence (Q8WXE1 whole entry partner): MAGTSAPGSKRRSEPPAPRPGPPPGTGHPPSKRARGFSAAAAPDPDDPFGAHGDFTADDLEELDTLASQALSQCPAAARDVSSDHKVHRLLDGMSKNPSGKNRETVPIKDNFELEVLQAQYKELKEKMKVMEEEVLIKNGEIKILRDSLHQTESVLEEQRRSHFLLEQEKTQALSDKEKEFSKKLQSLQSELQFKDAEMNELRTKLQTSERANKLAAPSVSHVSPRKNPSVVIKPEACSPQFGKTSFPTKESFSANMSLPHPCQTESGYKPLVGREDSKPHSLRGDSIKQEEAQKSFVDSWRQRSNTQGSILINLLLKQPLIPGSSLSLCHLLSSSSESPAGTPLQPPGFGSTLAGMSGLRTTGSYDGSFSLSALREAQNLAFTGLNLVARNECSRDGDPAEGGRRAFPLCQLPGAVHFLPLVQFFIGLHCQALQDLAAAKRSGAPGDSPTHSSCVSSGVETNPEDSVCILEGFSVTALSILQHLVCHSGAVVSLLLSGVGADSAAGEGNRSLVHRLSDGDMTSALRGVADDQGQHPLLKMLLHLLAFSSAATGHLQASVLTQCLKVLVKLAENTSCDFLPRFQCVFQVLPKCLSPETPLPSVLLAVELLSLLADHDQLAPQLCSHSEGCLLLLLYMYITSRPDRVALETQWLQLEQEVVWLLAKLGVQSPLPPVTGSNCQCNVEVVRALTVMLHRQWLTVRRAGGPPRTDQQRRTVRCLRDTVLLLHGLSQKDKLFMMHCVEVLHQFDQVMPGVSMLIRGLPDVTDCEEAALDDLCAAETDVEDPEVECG

C=C(C)c1nc(-c2ccn[nH]2)n2nc(N3CCOC[C@H]3C)cc(-c3ccnn3C)c12 [Example 25, (R)-3-Methyl-4-(4-(1-Methyl-1H-pyrazol-5-yl)-5-(prop-1-en-2-yl)-7-(1H-pyrazol-5-yl)imidazo[1,5-b]pyridazin-2-yl)morpholine]
IC50 (ATR/ATRIP enzyme): 1 nM | IC50 [1]: 10.7 nM | AUC(0-inf) [2]: 70200 ng·h/mL | AUC(0-t) [2]: 70000 ng·h/mL | Cmax [2]: 16900 ng/mL | half-life [2]: 2.56 h | IC50 [3]: 8.64 nM

C[C@@H]1COCCN1c1cc(-c2ccnn2C)c2c(Cl)nc(-c3ccn[nH]3)n2n1 [Example 21, (R)-4-(5-chloro-4-(1-methyl-1H-pyrazol-5-yl)-7-(1H-pyrazol-5-yl)imidazo[1,5-b]pyridazin-2-yl)-3-methylmorpholine]
IC50 (ATR/ATRIP enzyme): 6 nM | IC50 [1]: 22.4 nM | AUC(0-inf) [2]: 42900 ng·h/mL | AUC(0-t) [2]: 42800 ng·h/mL | Cmax [2]: 7340 ng/mL | half-life [2]: 2.65 h | IC50 [3]: 24.1 nM

Cc1ncccc1-c1cc(N2CCOC[C@H]2C)nn2c(-c3ccn[nH]3)nc(C)c12 [Example 4, (R)-3-methyl-4-(5-methyl-4-(2-methylpyridin-3-yl)-7-(1H-pyrazol-5-yl)imidazo[1,5-b]pyridazin-2-yl)morpholine]
IC50 (ATR/ATRIP enzyme): 3 nM | IC50 [1]: 26.9 nM | AUC(0-inf) [2]: 44000 ng·h/mL | AUC(0-t) [2]: 43400 ng·h/mL | Cmax [2]: 9010 ng/mL | half-life [2]: 3.2 h | IC50 [3]: 13 nM

C[C@@H]1COCCN1c1cc(-c2ccnn2C)c2c(Br)nc(-c3ccn[nH]3)n2n1 [Example 22, (R)-4-(5-bromo-4-(1-methyl-1H-pyrazol-5-yl)-7-(1H-pyrazol-5-yl)imidazo[1,5-b]pyridazin-2-yl)-3-methylmorpholine]
IC50 (ATR/ATRIP enzyme): 2 nM | IC50 [1]: 24.1 nM | AUC(0-inf) [2]: 63000 ng·h/mL | AUC(0-t) [2]: 59000 ng·h/mL | Cmax [2]: 7670 ng/mL | half-life [2]: 5.88 h | IC50 [3]: 17.1 nM

Cc1nc(-c2ccn[nH]2)n2nc(N3CCOC[C@H]3C)cc(-c3cccnc3C(F)(F)F)c12 [Example 5, (R)-3-methyl-4-(5-methyl-7-(1H-pyrazol-5-yl)-4-(2-(trifluoromethyl)pyridin-3-yl)imidazo[1,5-b]pyridazin-2-yl)morpholine]
IC50 (ATR/ATRIP enzyme): 3 nM | IC50 [1]: 25.5 nM | AUC(0-inf) [2]: 31700 ng·h/mL | AUC(0-t) [2]: 30800 ng·h/mL | Cmax [2]: 8930 ng/mL | half-life [2]: 3.42 h | IC50 [3]: 17.8 nM
